Measured values published in publication PMC4894664 (Cancer cell, 2015).

Columns and labels:
[1] = system: A375 in which NRAS Q61K is expressed; assay: p-ERK in A375 cells expressing NRAS Q61K; assay type: cell-based; details: A375 with mutant NRAS overexpressed, 1 hr
[2] = system: SK-MEL-239 C4 tumors (p61 V600E); assay: SK-MEL-239 C4 subcutaneous xenograft; assay type: in vivo, nude mice; details: for activity against SK-MEL-239 C4 tumors (growth): daily for 32 days, 75 mg/kg vemurafenib or 100 mg/kg BGB659
[3] = system: A549 lung cancer (mutant KRAS G12S); assay: p-ERK in A549 cells; assay type: cell-based; details: 1 hr
SK-MEL-239 tumors = assay: SK-MEL-239 subcutaneous xenograft; assay type: in vivo, nude mice; details: for growth of SK-MEL-239 tumors: daily for 32 days, 75 mg/kg vemurafenib or 100 mg/kg BGB659; for ERK signaling in SK-MEL-239 tumors: tumor extracts, Western blot, 75 mg/kg vemurafenib or 100 mg/kg BGB659 daily
[4] = system: RAF mutants that constitutively dimerize; assay: ERK signaling in SKBR3 cells expressing RAF mutants that constitutively dimerize; assay type: cell-based; details: SKBR3, 1 μM drug, 1 hr
A375 (BRAF V600E) cells = assay: p-ERK in A375 cells; assay type: cell-based
[5] = system: BRAF V600E T529N or p61 BRAF V600E T529N; assay: ERK signaling in cells expressing BRAF gatekeeper mutants; assay type: cell-based; details: cells expressing BRAF V600E T529N or p61 BRAF V600E T529N (gatekeeper mutation)
[6] = system: second site of the WT RAF dimer in SK-MEL-30 NRAS mutant cells; assay type: cell-based; details: p-ERK; first site occupied by LGX818
[7] = system: SK-MEL-2 melanoma (mutant NRAS Q61R); assay: p-ERK in SK-MEL-2 cells; assay type: cell-based; details: 1 hr
[8] = system: SKBR3 breast cancer (HER2-activated wild type RAS); assay: RAS activity and p-ERK in SKBR3 cells; assay type: cell-based
[9] = Tolerability of daily dosing in mice; assay type: in vivo; details: 100 mg/kg given daily
[10] = system: SK-MEL-30 (NRAS Q61K) cells; assay: p-ERK in SK-MEL-30 cells, with and without drug washout; assay type: cell-based
[11] = system: SK-MEL-239 parental cells (BRAF V600E); assay: p-ERK inhibition in SK-MEL-239 parental cells; assay type: cell-based; details: read-out: concentration inhibiting monomer driven signaling (p-ERK IC50)
BRAF V600E tumor cells = assay: ERK phosphorylation after drug washout in BRAF V600E tumor cells; assay type: cell-based; details: 1 hr exposure then washout
[12] = system: SK-MEL-239 C4 clone (which expresses p61 BRAF V600E); assay: p-ERK inhibition in SK-MEL-239 C4 clone; assay type: cell-based; details: read-out: concentration inhibiting dimer signaling (p-ERK IC50)
p61 BRAF V600E = p61 BRAF V600E (Homo sapiens, UniProt P15056, DEL169-380/V600E); assay: ERK signaling; assay type: cell-based; details: SKBR3, drug 1 hr
BRAF/CRAF heterodimers = BRAF/CRAF heterodimers (Homo sapiens, UniProt P04049+P15056); assay: Induction of BRAF/CRAF heterodimers; assay type: cell-based; details: HeLa and two melanoma cell lines with mutant NRAS, 1 hr
[13] = system: JVM-3, a BRAF K601N CLL cell line; assay: ERK signaling and proliferation of JVM-3; assay type: cell-based
[14] = SK-MEL-30 (mutant NRAS, WT RAF)
[15] = SK-MEL-30, 3 μM for 1 hr then washout

CC(C)(N)c1cc(C(=O)N[C@@H]2CCc3ccc(Oc4ccnc5c4CCC(=O)N5)cc3C2)cc(C(F)(F)F)c1 [BGB659]
inhibition of ERK signaling at 1 μM [1]: almost complete inhibition
activity against SK-MEL-239 C4 tumors (growth) [2]: had activity
ERK signaling in SK-MEL-239 C4 tumors ([2]; tumor extracts, Western blot, 75 mg/kg vemurafenib or 100 mg/kg BGB659 daily): only BGB659 inhibited
ERK phosphorylation at 1 μM ([3]; A549, 1 μM): declined to pretreatment levels
ERK phosphorylation at 10 μM ([3]; A549, 10 μM): some residual activity remained
growth of SK-MEL-239 tumors (SK-MEL-239 tumors): effectively inhibited
ERK signaling in SK-MEL-239 tumors (SK-MEL-239 tumors): potently inhibited
sensitivity of ERK signaling driven by RAF mutants that constitutively dimerize [4]: sensitive
inhibition of ERK signaling at 1 μM (A375 (BRAF V600E) cells; A375, 1 μM, 1 hr): almost complete inhibition
IC50 (A375 (BRAF V600E) cells; read-out: IC50 for inhibition of ERK signaling, A375, 1 hr): 100 to 300 nM
ERK signaling resistant to the drug [5]: resistant
potency for inhibition of monomers and the second site of dimers [6]: 100 to 300 nM
decline of ERK phosphorylation ([7]; SK-MEL-2, 1 μM): 40%
ERK phosphorylation at 10 μM ([7]; SK-MEL-2, 10 μM): approached complete inhibition
decline of ERK phosphorylation ([8]; SKBR3, 1 μM, 1 hr): 40%
ERK phosphorylation at 10 μM ([8]; SKBR3, 10 μM, 1 hr): approached complete inhibition
weight loss or other toxicity [9]: unassociated with weight loss or other obvious toxicity

COC(=O)N[C@@H](C)CNc1nccc(-c2cn(C(C)C)nc2-c2cc(Cl)cc(NS(C)(=O)=O)c2F)n1 [LGX818]
concentration of peak induction of ERK [10, 14]: 100 nM
concentrations causing concentration-dependent inhibition of ERK signaling [10, 14]: 300 to 3000 nM
half-time of p-ERK rise after drug washout [10, 15]: 10 min
p-ERK 24 hr after washout relative to basal [10, 15]: three fold elevated compared to basal
maximum p-ERK after drug washout relative to basal ([10]; SK-MEL-30, 3 μM for 1 hr then washout, maximum approximately 1 hr after washout): about five times higher than basal
IC50 [11]: 14 nM
p-ERK after drug washout (A375 (BRAF V600E) cells; A375, 3 μM for 1 hr then washout): remained inhibited in A375 for up to 24 hr
ERK phosphorylation 1 hr after washout of the drug (BRAF V600E tumor cells): remains inhibited
IC50 [12]: 287 nM

CC(C)(C)c1nc(-c2cccc(NS(=O)(=O)c3c(F)cccc3F)c2F)c(-c2ccnc(N)n2)s1 [dabrafenib]
fold higher concentrations required to inhibit ERK driven by p61 V600E dimers than by p61 V600E R509H monomers (p61 BRAF V600E): same relative difference
induction of BRAF/CRAF heterodimers (BRAF/CRAF heterodimers): equivalent and much greater than that caused by vemurafenib

CS(=O)(=O)CCNCc1ccc(-c2ccc3ncnc(Nc4ccc(OCc5cccc(F)c5)c(Cl)c4)c3c2)o1 [lapatinib]
RAS activity and ERK signaling ([8]; SKBR3, 1 hr exposure): potently suppressed

CCCS(=O)(=O)Nc1ccc(F)c(C(=O)c2c[nH]c3ncc(-c4ccc(Cl)cc4)cc23)c1F [vemurafenib]
activity against SK-MEL-239 C4 tumors (growth) [2]: only the latter had activity
effect on ERK signaling [10, 14]: activates ERK signaling
growth of SK-MEL-239 tumors (SK-MEL-239 tumors): effectively inhibited
ERK signaling in SK-MEL-239 tumors (SK-MEL-239 tumors): potently inhibited
effect on ERK signaling and proliferation of JVM-3 [13]: resistant
sensitivity of ERK signaling driven by RAF mutants that constitutively dimerize [4]: resistant
ERK phosphorylation 1 hr after washout of the drug (BRAF V600E tumor cells): returned to pre-exposure levels
ERK signaling resistant to the drug [5]: resistant
